Measured values: PMC10837130, “ATP-dependent conformational dynamics in a photoactivated adenylate cyclase revealed by fluorescence spectroscopy and small-angle X-ray scattering” (Communications Biology, 2024)
One block for each molecule: values may come before it.

Legend:
Format in all cases: binding
[1] = molecular target: T1, OaPAC (photoactivated adenylate cyclase) (Oxynema acuminatum, UniProt K9TLZ5); test: steady-state fluorescence anisotropy; stopped-flow fluorescence (KD […]); set-up: gene Oscil6304_3613; Full-length OaPAC (366 aa, homodimer)
T1 sequence (K9TLZ5 1-366): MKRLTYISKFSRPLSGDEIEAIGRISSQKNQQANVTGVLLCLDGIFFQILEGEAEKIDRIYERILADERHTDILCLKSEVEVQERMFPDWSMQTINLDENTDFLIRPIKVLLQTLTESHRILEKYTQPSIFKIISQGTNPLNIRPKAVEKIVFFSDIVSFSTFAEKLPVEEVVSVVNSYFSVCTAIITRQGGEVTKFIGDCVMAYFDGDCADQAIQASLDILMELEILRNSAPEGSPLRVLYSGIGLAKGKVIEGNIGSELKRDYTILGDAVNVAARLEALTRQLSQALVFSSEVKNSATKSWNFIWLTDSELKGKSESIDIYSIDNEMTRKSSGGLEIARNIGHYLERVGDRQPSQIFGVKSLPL

[2] = molecular target: T1, OaPAC (photoactivated adenylate cyclase); test: ITC (also nanoDSF, DSC, flavin-emission thermal shift, SAXS); set-up: gene Oscil6304_3613; Full-length OaPAC (366 aa, homodimer), dark-adapted state
[3] = molecular target: T1, OaPAC (photoactivated adenylate cyclase); test: ITC (also nanoDSF, SAXS titration, CD); set-up: gene Oscil6304_3613; Full-length OaPAC (366 aa, homodimer), dark-adapted state

Kd [1]: 2.25 ± 0.4 µM
Compound: CNc1ccccc1C(=O)O[C@H]1[C@@H](O)[C@H](n2cnc3c(N)ncnc32)O[C@@H]1CO[P@@](=O)(O)O[P@](=O)(O)OP(=O)(O)O [mantATP]

Compound: Nc1ncnc2c1ncn2[C@@H]1O[C@H](COP(=O)(O)CP(=O)(O)OP(=O)(O)O)[C@@H](O)[C@H]1O [ApCpp, Adenosine-5’-[(α,β)-methyleno]triphosphate]
Kd [2]: 5.92 ± 5.06 µM

Compound: Nc1ncnc2c1ncn2[C@@H]1O[C@H](COP(=O)(O)OP(=O)(O)OP(=O)(O)O)[C@@H](O)[C@H]1O [ATP]
Kd [3]: 3.24 ± 1.9 µM
